Source: PubChem BioAssay AID248 (DTP/NCI, 2004)
Values joined by “and” are separate entries in the source; they are usually repeats but may differ in a detail not shown here. Equal entries are not always repeated. Toxic doses and inconclusive results are not listed. No stated cut-off is given here; in the data, active means T/C of 150% or more; inactive means T/C below 125%.

System: L1210 leukemia ip in BDF1 mice, survival T/C
Experiment: NCI In Vivo Anticancer Drug Screen. Data for tumor model L1210 Leukemia (intraperitoneal) in B6D2F1 (BDF1) mice
Conditions: endpoint: mean survival time, higher = longer survival
Outline: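 Each compound was tested against a transplantable tumor grown in mice. The endpoint was survival, with treated animals benchmarked against vehicle controls as a simple ratio.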

[1] = dose: 12.5 mg/kg/injection, schedule: Q04DX003 (ip), vehicle: saline
[2] = dose: 25.0 mg/kg/injection, schedule: Q04DX003 (ip), vehicle: saline
[3] = dose: 50.0 mg/kg/injection, schedule: Q04DX003 (ip), vehicle: saline
[4] = dose: 100.0 mg/kg/injection, schedule: Q04DX003 (ip), vehicle: saline

Measured: T/C

CN(C)CCN1c2ccccc2Sc2ccccc21
inactive: [1] 97 % of control | [2] 108 % of control | [3] 103 % of control | [4] 101 % of control

Cc1nc(C)c2c(c1C)-c1ccccc1C2=O
inactive: dose: 50.0 mg/kg/injection, schedule: Q01DX009 (ip), vehicle: other 104 % of control | dose: 50.0 mg/kg/injection, schedule: Q01DX009 (ip), vehicle: saline + alcohol 108 % of control | dose: 100.0 mg/kg/injection, schedule: Q01DX009 (ip), vehicle: other 100 % of control | dose: 100.0 mg/kg/injection, schedule: Q01DX009 (ip), vehicle: saline + alcohol 106 % of control | [4] 102 % of control | dose: 200.0 mg/kg/injection, schedule: Q01DX009 (ip), vehicle: other 100 % of control | dose: 200.0 mg/kg/injection, schedule: Q01DX009 (ip), vehicle: saline + alcohol 108 % of control | dose: 200.0 mg/kg/injection, schedule: Q04DX003 (ip), vehicle: saline 101 % of control | dose: 400.0 mg/kg/injection, schedule: Q01DX009 (ip), vehicle: other 107 % of control | dose: 400.0 mg/kg/injection, schedule: Q01DX009 (ip), vehicle: saline + alcohol 98 % of control | dose: 400.0 mg/kg/injection, schedule: Q04DX003 (ip), vehicle: saline 107 % of control | dose: 500.0 mg/kg/injection, schedule: Q01DX009 (ip), vehicle: other 95 % of control

NCCC(=O)OC1CCCc2c(O)c3c(c(O)c21)C(=O)c1ccccc1C3=O (stereo not drawn)
inactive: [1] 93 % of control | dose: 25.0 mg/kg/injection, schedule: Q01DX009 (ip), vehicle: saline 93 % of control | [2] 95 % of control | dose: 50.0 mg/kg/injection, schedule: Q01DX009 (ip), vehicle: saline 97 % of control | [3] 98 % of control | [4] 102 % of control

C=CCC(Cc1cc(CC(CC=C)(C(=O)OCC)C(=O)OCC)cc(CC(CC=C)(C(=O)OCC)C(=O)OCC)c1)(C(=O)OCC)C(=O)OCC
inactive: dose: 100.0 mg/kg/injection, schedule: Q04DX003 (ip), vehicle: acetone 107 % of control | dose: 200.0 mg/kg/injection, schedule: Q04DX003 (ip), vehicle: acetone 90 % of control | dose: 400.0 mg/kg/injection, schedule: Q04DX003 (ip), vehicle: acetone 96 % of control

Nc1nc(-c2ccccc2)nc2nonc12
inactive: dose: 100.0 mg/kg/injection, schedule: Q04DX003 (ip), vehicle: saline with Tween-80 105 % of control | dose: 200.0 mg/kg/injection, schedule: Q04DX003 (ip), vehicle: saline with Tween-80 99 % of control | dose: 400.0 mg/kg/injection, schedule: Q04DX003 (ip), vehicle: saline with Tween-80 97 % of control

CONCC(=O)c1ccc(SC)cc1
inactive: dose: 100.0 mg/kg/injection, schedule: Q01DX001 (ip), vehicle: saline 106 % of control | dose: 200.0 mg/kg/injection, schedule: Q01DX001 (ip), vehicle: saline 97 % of control | dose: 400.0 mg/kg/injection, schedule: Q01DX001 (ip), vehicle: saline 100 % of control

O=C(Nc1ccc(C(=O)Nc2cccc(C3=NCCN3)c2)cc1)Nc1ccc(C(=O)Nc2cccc(C3=NCCN3)c2)cc1
inactive: dose: 3.75 mg/kg/injection, schedule: Q01DX Z (ip), vehicle: methylcellulose (MC) 101 % of control | dose: 3.8 mg/kg/injection, schedule: Q01DX Z (ip), vehicle: methylcellulose (MC) 100 % of control | dose: 7.5 mg/kg/injection, schedule: Q01DX Z (ip), vehicle: methylcellulose (MC) 97 % of control | dose: 15.0 mg/kg/injection, schedule: Q01DX Z (ip), vehicle: methylcellulose (MC) 106 % of control | dose: 30.0 mg/kg/injection, schedule: Q01DX Z (ip), vehicle: methylcellulose (MC) 118 % of control and 86 % of control | dose: 50.0 mg/kg/injection, schedule: Q01DX001 (ip), vehicle: carboxymethylcellulose (CMC) 103 % of control | dose: 100.0 mg/kg/injection, schedule: Q01DX001 (ip), vehicle: carboxymethylcellulose (CMC) 120 % of control | dose: 120.0 mg/kg/injection, schedule: Q01DX Z (ip), vehicle: methylcellulose (MC) 124 % of control | dose: 200.0 mg/kg/injection, schedule: Q01DX001 (ip), vehicle: carboxymethylcellulose (CMC) 120 % of control | dose: 225.0 mg/kg/injection, schedule: Q01DX009 (ip), vehicle: saline with Tween-80 117 % of control | dose: 340.0 mg/kg/injection, schedule: Q01DX009 (ip), vehicle: saline with Tween-80 88 % of control | dose: 400.0 mg/kg/injection, schedule: Q01DX001 (ip), vehicle: carboxymethylcellulose (CMC) 108 % of control
